# According to ChEMBL document CHEMBL1133799, “A disubstituted NAD+ analogue is a nanomolar inhibitor of trypanosomal glyceraldehyde-3-phosphate dehydrogenase” (Bioorg Med Chem Lett, 2001):
# Key:
# [1] = tested on: COc1cccc(C(=O)N[C@@H]2[C@H](O)[C@@H](CO)O[C@H]2n2cnc3c(NCc4cccc5ccccc45)ncnc32)c1
# Description: Binding affinity for NAD- in human glyceraldehyde-3-phosphate dehydrogenase (GAPDH)
# Description for Trypanosoma: Binding affinity for NAD- in trypanosomal glyceraldehyde-3-phosphate dehydrogenase (GAPDH)
# Chain of Glyceraldehyde-3-phosphate dehydrogenase (Homo sapiens), P04406 (P04406 whole entry): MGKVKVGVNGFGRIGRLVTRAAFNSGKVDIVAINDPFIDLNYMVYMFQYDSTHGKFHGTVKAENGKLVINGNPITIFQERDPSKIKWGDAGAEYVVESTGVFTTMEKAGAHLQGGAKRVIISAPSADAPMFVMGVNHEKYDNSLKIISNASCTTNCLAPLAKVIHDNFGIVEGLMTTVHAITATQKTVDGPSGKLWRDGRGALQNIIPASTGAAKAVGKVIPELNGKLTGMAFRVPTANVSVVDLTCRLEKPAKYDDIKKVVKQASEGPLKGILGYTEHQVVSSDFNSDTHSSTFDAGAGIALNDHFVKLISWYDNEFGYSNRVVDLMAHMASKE
Molecule,Km (Trypanosoma),Km [1]
COc1cccc(C(=O)N[C@@H]2[C@H](O)[C@@H](CO)O[C@H]2n2cnc3c(NCc4cccc5ccccc45)ncnc32)c1,0.45 µM,
"Glyceraldehyde-3-phosphate dehydrogenase (Homo sapiens), P04406",,0.04 µM
